Reference: USRE40862E1, “Gossypolone for the treatment of cancer” (priority 1990, dated 2009)
“And” between values parts separate entries of the source, which are not always exact repeats. Equal values may be shown once. “Also recorded” adds a separate entry of the source.

Experiments:
[1] = system: SW-13 cells; experiment: In vitro gossypol treatment: SW-13 cell proliferation; format: cell-based, human; conditions: 5 and 50 uM gossypol, prolonged exposure (1-6 days)
Protocol: SW-13 cells were seeded (1×10^4 cells) into 25 cm^2 tissue culture flasks in Dulbecco's minimal Eagle's medium supplemented with fetal calf serum (10%), 100 ug/ml streptomycin, 100 units/ml penicillin, and 2 mM glutamine.
Sw-13 cells were seeded in a 25-cm^2 tissue culture flask (Costar, Cambridge, Mass.) at densities of 1×10^4 cells/5 ml of Dulbecco's minimal Eagle's medium, supplemented with 10% fetal calf serum, 100 ug/ml streptomycin, 100 units/ml penicillin, and 2 mM glutamine. The cells were grown in a humidified, 37° C. incubator with a 5% CO2/95% air atmosphere. A gossypol stock solution in absolute ethanol was added to the culture medium to yield final concentrations of 0, 0.5, 5, and 50 uM gossypol with a 0.1% final ethanol concentration. After 1, 2, 4, or 6 days of incubation, the culture medium containing a few floating cells was removed. Adherent cells were typsinized (0.1% trypsin, w/v) and counted using a hemocytometer. Cell viability was determined by trypan blue exclusion.

[2] = clinical; conditions: human, in vivo
Protocol: (§1) Gossypol acetic acid, 10 mg compressed tablet, was given orally at a dose of 20 mg/d which was increased by 10 mg/d every three days to a dose of 50 mg/d.

[3] = system: cancers; conditions: cited from earlier work
[4] = system: SW-13 human adrenocortical carcinoma; experiment: Gossypol in SW-13 tumor bearing nude mice (preexisting tumors); format: in vivo; conditions: for Mean tumor size (mean ± SE): length×width; for Total deaths / Prevalence of tumor: preexisting tumors
Protocol: Nude mice (Charles River, Kingston, N.Y.) weighing 20-35 g were caged in a temperature-controlled (26-28° C.), 12 h/12 h light/dark animal room. A microporous cage bonnet served as an effective protective barrier between the animal and the outside environment. In addition, the room was continuously purged with […]. The cages, feeders, and water bottles were designed to make standard mouse chow and water readily available while minimizing the opportunity for the transfer of communicable pathogens.
Another experiment was designed wherein 48 adult male nude mice weighing 25-35 g were injected s.c. with 2×10^6 SW-13 cells. One month later, the animals were divided into two groups of 24. There were 7 nude mice without visible tumors in each group. The gossypol treated animals received 30 mg gossypol acetic acid/kg body weight/day whereas control animals were fed an equal volume of carrier. Body weigths and tumor sizes (lengths×width, cm^2) were measured weekly. During the 12th week of treatment, 5 control animals died. Since it appeared unlikely that the remaining control animals would survive for another week, they were then sacrificed. Autopsies were performed on all animals including those that died during the study period. Internal organs were examined for the presence of gross tumor.
Data are expressed as the mean±SD unless otherwise indicated. Statistical comparisons were made using an unpaired Student's t test.
In this experiment, nude mice had been given s.c. injections of SW-13 adrenocortical carcinoma 1 month prior to initiation of the treatment with either gossypol or carrier.

[5] = system: metastatic adrenocortical carcinoma; experiment: Phase 1 clinical trial of oral gossypol for adrenocortical cancer
Protocol: as §1

[6] = mouse; Rao et al. (1985); cited from earlier work
[7] = system: adrenocortical carcinoma; experiment: Previous therapy of the patient with adrenocortical carcinoma; format: in vivo, human; conditions: person, hepatic metastases, before gossypol
[8] = patient 26, lung, liver, dose 70, 3 weeks
[9] = patient 27, abdomen, pelvis, dose 50, 6 weeks
[10] = patient 34, abdomen, liver, dose 40-50, 12 weeks
[11] = patient 52, abdomen, dose 40, 6 weeks
[12] = person, after three weeks, gossypol acetic acid tablets 20 to 50 mg/d oral

Cc1cc2c(C(C)C)c(O)c(O)c(C=O)c2c(O)c1-c1c(C)cc2c(C(C)C)c(O)c(O)c(C=O)c2c1O [Gossypol, gossypol]
effect on proliferation of SW-13 cells [1]: inhibited cell proliferation | concentration at 6 weeks ([2]; female, oral, 40 mg/d): 4.44 ng/mL | concentration at 3 weeks ([2]; male): 10.2 ng/mL | concentration at 12 weeks ([2]; male, oral): 2.91 ng/mL | concentration at 6 weeks ([2]; male, oral, 50 mg/d): 2.29 ng/mL | anti-tumor effective dose in animals [3]: ~10 mg/kg/day | total tumor burden (cumulative surface area), control relative to gossypol group ([4]; 12th week, FIG. 2): twice | effect on body weights ([4]; 12 weeks of gossypol treatment): no significant effect | body weight at the end of the study period (mean ± SD) ([4]; after 12 weeks, 30 mg/kg/day oral): 30.9 ± 3.6 g | number of deaths in the gossypol-treated group ([4]; during 12 weeks of treatment, group of 24, 10 deaths in control group): two | Mean tumor size (mean ± SE) ([4]; week 0, 30 mg/kg/day oral): 0.08 ± 0.02 cm^2 | Total deaths ([4]; week 0, 30 mg/kg/day oral): 0% | Prevalence of tumor ([4]; week 0, 30 mg/kg/day oral, 30 mg/kg/day): 72% | Prevalence of tumor ([4]; week 0, 30 mg/kg/day oral, listed as gossypol, 30 mg/kg/day): 71% | Mean tumor size (mean ± SE) ([4]; week 1, 30 mg/kg/day oral): 0.07 ± 0.02 cm^2 | Prevalence of tumor ([4]; week 1, 30 mg/kg/day oral): 63% | Total deaths ([4]; week 1, 30 mg/kg/day oral): 0% | Mean tumor size (mean ± SE) ([4]; week 2, 30 mg/kg/day oral): 0.12 ± 0.04^a cm^2 | Prevalence of tumor ([4]; week 2, 30 mg/kg/day oral): 50% | Total deaths ([4]; week 2, 30 mg/kg/day oral): 0% | Mean tumor size (mean ± SE) ([4]; week 3, 30 mg/kg/day oral): 0.15 ± 0.05^a cm^2 | Prevalence of tumor ([4]; week 3, 30 mg/kg/day oral): 54% | Total deaths ([4]; week 3, 30 mg/kg/day oral): 0% | Mean tumor size (mean ± SE) ([4]; week 4, 30 mg/kg/day oral): 0.20 ± 0.07^a cm^2 | Prevalence of tumor ([4]; week 4, 30 mg/kg/day oral): 50% | Total deaths ([4]; week 4, 30 mg/kg/day oral): 0% | Mean tumor size (mean ± SE) ([4]; week 5, 30 mg/kg/day oral): 0.28 ± 0.08^a cm^2 | Prevalence of tumor ([4]; week 5, 30 mg/kg/day oral): 58% | Total deaths ([4]; week 5, 30 mg/kg/day oral): 0% | Mean tumor size (mean ± SE) ([4]; week 6, 30 mg/kg/day oral): 0.32 ± 0.10^a cm^2 | Prevalence of tumor ([4]; week 6, 30 mg/kg/day oral): 58% | Total deaths ([4]; week 6, 30 mg/kg/day oral): 0% | Mean tumor size (mean ± SE) ([4]; week 7, 30 mg/kg/day oral): 0.38 ± 0.12^a cm^2 | Prevalence of tumor ([4]; week 7, 30 mg/kg/day oral): 58% | Total deaths ([4]; week 7, 30 mg/kg/day oral): 0% | Mean tumor size (mean ± SE) ([4]; week 8, 30 mg/kg/day oral): 0.45 ± 0.14^a cm^2 | Prevalence of tumor ([4]; week 8, 30 mg/kg/day oral): 58% | Total deaths ([4]; week 8, 30 mg/kg/day oral): 0% | Mean tumor size (mean ± SE) ([4]; week 9, 30 mg/kg/day oral): 0.50 ± 0.15^a cm^2 | Prevalence of tumor ([4]; week 9, 30 mg/kg/day oral): 54% | Total deaths ([4]; week 9, 30 mg/kg/day oral): 0% | Mean tumor size (mean ± SE) ([4]; week 10, 30 mg/kg/day oral): 0.59 ± 0.18^a cm^2 | Prevalence of tumor ([4]; week 10, 30 mg/kg/day oral): 54% | Total deaths ([4]; week 10, 30 mg/kg/day oral): 0% | Mean tumor size (mean ± SE) ([4]; week 11, 30 mg/kg/day oral): 0.68 ± 0.21^a cm^2 | Prevalence of tumor ([4]; week 11, 30 mg/kg/day oral): 54% | Total deaths ([4]; week 11, 30 mg/kg/day oral): 0% | Mean tumor size (mean ± SE) ([4]; week 12, 30 mg/kg/day oral): 0.81 ± 0.25 (n = 22) cm^2 | Prevalence of tumor ([4]; week 12, 30 mg/kg/day oral): 54% | Total deaths ([4]; week 12, 30 mg/kg/day oral): 8.3% | tumor responses among the five patients ([5]; five patients of Table 3): two exhibited partial tumor responses, one has stable disease, and two showed tumor progression | dose above which toxicity begins to occur in humans ([5]; humans): 1 to 2 mg/kg/day | dose at which the anti-tumor effect occurs in humans ([5]; humans, approximately one tenth of dose effective in animals): ~1 mg/kg/day | side effects in treatment of human cancers ([5]; humans, compared to conventional therapies): mild fatigue, muscle tremor, dry mouth, dry skin, and occasional nausea | Response [5, 8]: Pro- | Side Effects [5, 8]: Xerostomia; also recorded: Nausea; also recorded: Trans- | Response [5, 9]: Pro- | Side Effects [5, 9]: Xerostomia; also recorded: Fatigue | Response [5, 10]: Stabili- | Side Effects [5, 10]: Xerostomia; also recorded: Fatigue; also recorded: Nausea | Response [5, 11]: Partial | Side Effects [5, 11]: Xerostomia; also recorded: Fatigue; also recorded: Nausea | side effects experienced during gossypol treatment ([5]; person, 20 to 50 mg/d oral): fatigue, xerostomia, tremor, and trasnminitis | clinical symptoms ([5]; person, after three weeks of treatment): improvement in abdominal pain, ascites, and pulmonary function | decrease in the size of the hepatic metastases on CT scans [5, 12]: > 50% | pulmonary metastases on CT scans [5, 12]: complete resolution | higher doses shown to be lethal [6]: 0.8 mg/mouse and 1.6 mg/mouse

Cc1ccc(C(=O)Nc2ccc(S(=O)(=O)O)c3cc(S(=O)(=O)O)cc(S(=O)(=O)O)c23)cc1NC(=O)c1cccc(NC(=O)Nc2cccc(C(=O)Nc3cc(C(=O)Nc4ccc(S(=O)(=O)O)c5cc(S(=O)(=O)O)cc(S(=O)(=O)O)c45)ccc3C)c2)c1 [Suramin]
tumor course under treatment [7]: progressed
